Key:
[1] = test system: Trachea; assay: Induction of bronchodilation in guinea pig tracheal rings assessed as reduction in histamine-induced contractions; type: functional, tissue-based; details: Cavia porcellus
[2] = test system: Trachea; assay: Potency index, ratio of theophylline IC50 to test compound IC50 for reduction in histamine-induced contractions in guinea pig tracheal rings; type: functional, Cavia porcellus

| SMILES | IC50 [1] [µM] | Ratio IC50 [2] |
| --- | --- | --- |
| COc1nc(-c2ccc(Cl)cc2)cc(-c2ccc(Cl)cc2Cl)c1C#N | 7.55 | – |
| COc1nc(-c2ccc(C)cc2)cc(-c2ccc(Cl)cc2Cl)c1C#N | 10.6 | – |
| CCOc1nc(-c2ccc(F)cc2)cc(-c2ccc(Cl)cc2Cl)c1C#N | 8.02 | – |
| COc1nc(-c2cccs2)cc(-c2ccc(Cl)cc2Cl)c1C#N | 3.28 | – |
| N#Cc1c(-c2ccc(Cl)cc2Cl)cc(-c2ccc(Cl)cc2)nc1N1CCCCC1 | 7.83 | – |
| COc1nc2c(c(-c3ccc(Cl)cc3Cl)c1C#N)CCCc1ccccc1-2 | 10 | – |
| COc1nc(-c2ccccc2)cc(-c2ccc(Cl)cc2Cl)c1C#N | 5.34 | 2 |
| N#Cc1c(-c2ccc(Cl)cc2Cl)cc(-c2ccc(Cl)cc2)nc1Br | 9.14 | – |
| CN1CCN(c2nc(-c3ccc(Cl)cc3)cc(-c3ccc(Cl)cc3Cl)c2C#N)CC1 | 13 | – |
| CCOc1nc2c(c(-c3ccc(Cl)cc3Cl)c1C#N)-c1ccccc1CC2 | 7.07 | – |
| COc1cc2c(cc1OC)-c1nc(OC)c(C#N)c(-c3ccc(Cl)cc3Cl)c1C2 | 6.8 | – |
| COc1nc2c(c(-c3ccc(Cl)cc3Cl)c1C#N)-c1ccccc1CC2 | 6.36 | – |
| COc1ccc(-c2cc(-c3ccc(Cl)cc3Cl)c(C#N)c(OC)n2)cc1OC | 7.91 | – |
| COc1nc2c(c(-c3ccc(Cl)cc3Cl)c1C#N)CSc1ccccc1-2 | 11 | – |
| COc1nc2c(c(-c3ccc(Cl)cc3Cl)c1C#N)-c1ccccc1C2 | 9.11 | – |
| COc1nc(-c2ccncc2)cc(-c2ccc(Cl)cc2Cl)c1C#N | 11.8 | – |
| CCOc1nc2c(c(-c3ccc(Cl)cc3Cl)c1C#N)CCCc1ccccc1-2 | 13 | – |
| COc1nc(-c2ccc(F)cc2)cc(-c2ccc(Cl)cc2Cl)c1C#N | 7.43 | – |
| COc1nc2c(c(-c3ccc(Cl)cc3Cl)c1C#N)COc1ccccc1-2 | 6.11 | – |
| CCOc1nc2c(c(-c3ccc(Cl)cc3Cl)c1C#N)-c1ccccc1C2 | 11 | – |
| COc1ccc(-c2cc(-c3ccc(Cl)cc3Cl)c(C#N)c(OC)n2)cc1 | 9.89 | – |
| COc1nc(-c2ccc3ccccc3c2)cc(-c2ccc(Cl)cc2Cl)c1C#N | 9.4 | – |
| CCOc1nc(-c2cccs2)cc(-c2ccc(Cl)cc2Cl)c1C#N | 8.71 | – |
| COc1nc(-c2ccc(Br)cc2)cc(-c2ccc(Cl)cc2Cl)c1C#N | 8.02 | – |
| CCOc1nc(-c2ccc(Br)cc2)cc(-c2ccc(Cl)cc2Cl)c1C#N | 12.4 | – |
| COc1nc(-c2cccnc2)cc(-c2ccc(Cl)cc2Cl)c1C#N | 17.1 | – |
| CCN1CCN(c2nc(-c3ccc(Cl)cc3)cc(-c3ccc(Cl)cc3Cl)c2C#N)CC1 | 15.8 | – |
| N#Cc1c(-c2ccc(Cl)cc2Cl)cc(-c2ccc(Cl)cc2)nc1N1CCOCC1 | 6.71 | – |
| CCOc1nc(-c2ccc(Cl)cc2)cc(-c2ccc(Cl)cc2Cl)c1C#N | 9.38 | – |
| Cn1c(=O)c2nc[nH]c2n(C)c1=O [THEOPHYLLINE] | 11.6 | – |

Reference: ChEMBL document CHEMBL4130361, “Synthesis, molecular modeling studies and bronchodilation properties of nicotinonitrile containing-compounds” (Eur J Med Chem, 2017)
